In patent US10709758B2 (priority 2015, dated 2020):
Residues, ends and D or L forms follow the SMILES beside them.

How the values were obtained:
TcdB [1] = test system: TcdB
TcdB1 = TcdB1 (Clostridioides difficile, UniProt P18177)
CHO-K1 cells = type: cell-based
TcdB [2] = target: TcdB (Clostridioides difficile, UniProt P18177); conditions: cited from earlier work
TcdB (Clostridioides difficile, UniProt P18177), sequence (P18177 whole entry, looked up): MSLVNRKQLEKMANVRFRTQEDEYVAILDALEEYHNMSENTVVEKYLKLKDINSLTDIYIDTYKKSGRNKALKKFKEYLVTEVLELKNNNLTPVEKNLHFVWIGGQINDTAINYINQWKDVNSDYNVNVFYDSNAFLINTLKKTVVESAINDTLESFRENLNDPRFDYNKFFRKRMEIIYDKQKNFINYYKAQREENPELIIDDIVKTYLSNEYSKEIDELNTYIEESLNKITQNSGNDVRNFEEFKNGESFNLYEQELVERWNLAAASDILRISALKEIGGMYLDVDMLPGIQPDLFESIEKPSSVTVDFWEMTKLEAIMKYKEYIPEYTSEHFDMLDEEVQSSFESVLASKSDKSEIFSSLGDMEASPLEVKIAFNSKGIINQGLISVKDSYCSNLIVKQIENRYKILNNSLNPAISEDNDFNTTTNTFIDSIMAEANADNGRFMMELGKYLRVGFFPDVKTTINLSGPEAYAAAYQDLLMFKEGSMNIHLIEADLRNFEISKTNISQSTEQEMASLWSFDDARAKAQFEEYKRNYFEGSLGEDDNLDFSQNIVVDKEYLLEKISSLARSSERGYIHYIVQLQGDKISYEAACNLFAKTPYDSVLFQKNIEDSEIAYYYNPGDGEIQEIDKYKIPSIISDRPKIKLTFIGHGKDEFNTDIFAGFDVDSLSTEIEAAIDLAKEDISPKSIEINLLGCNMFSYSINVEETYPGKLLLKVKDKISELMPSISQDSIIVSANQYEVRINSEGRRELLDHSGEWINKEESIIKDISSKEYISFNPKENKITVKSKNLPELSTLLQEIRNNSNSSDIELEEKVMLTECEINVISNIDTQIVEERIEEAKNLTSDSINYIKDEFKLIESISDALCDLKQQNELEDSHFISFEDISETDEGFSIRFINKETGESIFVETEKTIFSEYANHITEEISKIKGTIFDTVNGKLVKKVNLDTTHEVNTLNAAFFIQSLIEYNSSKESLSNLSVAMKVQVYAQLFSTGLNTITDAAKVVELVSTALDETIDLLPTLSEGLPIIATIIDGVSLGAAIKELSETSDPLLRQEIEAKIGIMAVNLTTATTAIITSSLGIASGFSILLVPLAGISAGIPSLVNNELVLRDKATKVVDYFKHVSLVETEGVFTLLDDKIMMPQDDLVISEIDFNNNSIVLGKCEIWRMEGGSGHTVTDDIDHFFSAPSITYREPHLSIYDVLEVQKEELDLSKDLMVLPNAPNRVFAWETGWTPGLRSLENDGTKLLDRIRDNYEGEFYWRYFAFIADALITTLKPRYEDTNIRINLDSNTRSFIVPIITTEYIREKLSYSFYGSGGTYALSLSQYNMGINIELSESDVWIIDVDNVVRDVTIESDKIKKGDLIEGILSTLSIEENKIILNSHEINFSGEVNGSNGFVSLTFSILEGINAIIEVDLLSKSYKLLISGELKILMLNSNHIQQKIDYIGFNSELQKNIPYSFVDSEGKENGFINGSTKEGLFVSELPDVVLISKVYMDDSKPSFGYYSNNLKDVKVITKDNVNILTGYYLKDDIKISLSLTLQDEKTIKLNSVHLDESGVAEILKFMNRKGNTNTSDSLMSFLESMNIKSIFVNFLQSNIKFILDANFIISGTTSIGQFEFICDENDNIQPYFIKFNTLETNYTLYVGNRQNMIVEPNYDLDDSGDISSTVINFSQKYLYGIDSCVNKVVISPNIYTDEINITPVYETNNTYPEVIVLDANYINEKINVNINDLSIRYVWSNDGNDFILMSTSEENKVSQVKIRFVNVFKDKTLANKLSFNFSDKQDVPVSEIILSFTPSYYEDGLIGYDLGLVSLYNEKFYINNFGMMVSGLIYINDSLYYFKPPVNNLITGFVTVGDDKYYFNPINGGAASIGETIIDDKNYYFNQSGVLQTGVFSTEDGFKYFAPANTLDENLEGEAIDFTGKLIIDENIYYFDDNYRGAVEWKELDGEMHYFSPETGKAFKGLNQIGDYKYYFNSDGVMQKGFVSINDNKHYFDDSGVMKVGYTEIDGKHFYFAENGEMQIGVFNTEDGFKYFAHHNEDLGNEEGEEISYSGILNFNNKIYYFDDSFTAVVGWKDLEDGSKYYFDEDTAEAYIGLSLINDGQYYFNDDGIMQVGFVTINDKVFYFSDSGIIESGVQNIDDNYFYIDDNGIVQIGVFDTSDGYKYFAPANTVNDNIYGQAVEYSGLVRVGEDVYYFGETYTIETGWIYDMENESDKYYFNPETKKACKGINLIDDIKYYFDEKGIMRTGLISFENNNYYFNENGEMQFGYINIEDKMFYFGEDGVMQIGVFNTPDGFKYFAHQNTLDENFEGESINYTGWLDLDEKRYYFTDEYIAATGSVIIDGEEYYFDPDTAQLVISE

TcdB1, sequence (P18177 2-2366 limits assumed): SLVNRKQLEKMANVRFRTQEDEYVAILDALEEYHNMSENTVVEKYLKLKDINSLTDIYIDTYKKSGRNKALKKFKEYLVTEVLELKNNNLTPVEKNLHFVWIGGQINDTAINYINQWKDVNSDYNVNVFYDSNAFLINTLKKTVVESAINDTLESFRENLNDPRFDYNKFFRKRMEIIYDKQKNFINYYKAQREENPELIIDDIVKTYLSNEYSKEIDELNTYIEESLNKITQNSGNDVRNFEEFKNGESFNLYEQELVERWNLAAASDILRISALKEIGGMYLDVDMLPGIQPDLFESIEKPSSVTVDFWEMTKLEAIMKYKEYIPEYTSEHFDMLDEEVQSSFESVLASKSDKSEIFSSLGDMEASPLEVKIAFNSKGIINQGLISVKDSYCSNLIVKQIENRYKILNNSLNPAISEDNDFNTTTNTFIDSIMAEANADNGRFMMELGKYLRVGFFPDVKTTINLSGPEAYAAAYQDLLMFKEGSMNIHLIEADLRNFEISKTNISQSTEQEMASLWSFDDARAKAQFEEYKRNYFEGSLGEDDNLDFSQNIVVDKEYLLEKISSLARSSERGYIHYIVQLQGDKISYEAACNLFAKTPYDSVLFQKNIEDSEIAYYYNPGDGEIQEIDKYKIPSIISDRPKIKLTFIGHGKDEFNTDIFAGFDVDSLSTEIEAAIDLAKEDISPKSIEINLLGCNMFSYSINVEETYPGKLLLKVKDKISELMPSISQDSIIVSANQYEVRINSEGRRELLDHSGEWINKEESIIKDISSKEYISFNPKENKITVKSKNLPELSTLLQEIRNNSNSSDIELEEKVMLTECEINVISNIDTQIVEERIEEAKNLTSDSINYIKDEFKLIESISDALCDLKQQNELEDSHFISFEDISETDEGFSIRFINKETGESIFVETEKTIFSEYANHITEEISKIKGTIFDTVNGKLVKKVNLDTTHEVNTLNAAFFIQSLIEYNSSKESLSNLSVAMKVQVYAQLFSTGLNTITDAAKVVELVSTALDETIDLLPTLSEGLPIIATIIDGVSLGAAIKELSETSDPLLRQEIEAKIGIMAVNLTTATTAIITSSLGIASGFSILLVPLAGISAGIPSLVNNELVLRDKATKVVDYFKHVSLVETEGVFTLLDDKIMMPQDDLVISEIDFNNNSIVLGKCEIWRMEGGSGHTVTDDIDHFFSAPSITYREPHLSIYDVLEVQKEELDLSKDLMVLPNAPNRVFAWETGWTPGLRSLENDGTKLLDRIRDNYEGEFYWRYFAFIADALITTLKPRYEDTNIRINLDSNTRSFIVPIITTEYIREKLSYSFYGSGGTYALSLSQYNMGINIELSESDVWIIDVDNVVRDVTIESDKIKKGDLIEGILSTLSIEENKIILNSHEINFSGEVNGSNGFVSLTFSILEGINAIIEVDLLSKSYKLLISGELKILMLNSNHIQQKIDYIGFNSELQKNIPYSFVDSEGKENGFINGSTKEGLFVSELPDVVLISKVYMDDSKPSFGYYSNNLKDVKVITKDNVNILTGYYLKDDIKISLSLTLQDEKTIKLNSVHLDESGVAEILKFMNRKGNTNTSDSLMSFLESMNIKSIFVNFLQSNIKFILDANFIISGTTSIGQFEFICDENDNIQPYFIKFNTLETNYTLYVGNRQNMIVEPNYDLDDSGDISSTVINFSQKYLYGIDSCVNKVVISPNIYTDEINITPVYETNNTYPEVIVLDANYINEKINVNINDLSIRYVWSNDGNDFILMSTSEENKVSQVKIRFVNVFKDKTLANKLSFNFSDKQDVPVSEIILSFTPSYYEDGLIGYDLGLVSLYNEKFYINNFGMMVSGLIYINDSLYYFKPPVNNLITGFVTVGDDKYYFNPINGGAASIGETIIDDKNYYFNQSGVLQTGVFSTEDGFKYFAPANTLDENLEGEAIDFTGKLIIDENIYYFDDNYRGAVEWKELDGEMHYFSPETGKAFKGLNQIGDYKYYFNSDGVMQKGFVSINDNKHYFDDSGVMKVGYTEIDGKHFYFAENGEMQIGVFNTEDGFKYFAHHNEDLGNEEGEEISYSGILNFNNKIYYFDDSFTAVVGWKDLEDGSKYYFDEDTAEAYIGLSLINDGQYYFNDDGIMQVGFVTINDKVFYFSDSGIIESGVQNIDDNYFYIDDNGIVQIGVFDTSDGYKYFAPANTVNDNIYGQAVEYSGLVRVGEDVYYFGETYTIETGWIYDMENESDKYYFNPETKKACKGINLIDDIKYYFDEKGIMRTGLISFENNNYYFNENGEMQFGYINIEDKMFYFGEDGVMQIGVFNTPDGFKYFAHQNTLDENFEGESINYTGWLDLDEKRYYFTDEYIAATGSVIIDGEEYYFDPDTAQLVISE

Question: For `CC(C)[C@H](NC(=O)[C@H](CCCCN)NC(=O)[C@H](CCCNC(=N)N)NC(=O)[C@H](CCCCN)NC(=O)[C@H](CCCCN)NC(=O)[C@H](CCCCN)NC(=O)[C@@H]1CCCN1C(=O)[C@H](CCC(N)=O)NC(=O)[C@H](CO)NC(=O)[C@H](Cc1c[nH]c2ccccc12)NC(=O)[C@H](CCC(=O)O)NC(=O)[C@@H](NC(=O)[C@H](Cc1c[nH]c2ccccc12)NC(=O)[C@H](Cc1c[nH]c2ccccc12)NC(=O)[C@@H](NC(=O)[C@H](CCC(=O)O)NC(=O)[C@H](Cc1c[nH]c2ccccc12)NC(=O)[C@H](Cc1c[nH]c2ccccc12)NC(=O)[C@@H](NC(=O)[C@H](CCC(=O)O)NC(=O)[C@@H](N)CCCCN)[C@@H](C)O)[C@@H](C)O)[C@@H](C)O)C(=O)O` [Pep-1, reference compound] (H-KETWWETWWTEWSQPKKKRKV-OH), which “effect of known CPPs on the cytotoxicity of TcdB” value (from here on “effect of known CPPs”) (TcdB [1]) is on record?
Answer: The value was “did not appear to alter TcdB cytotoxicity”.

Question: With `CC(C)C[C@H](NC(=O)[C@H](CCCCN)NC(=O)[C@H](CC(N)=O)NC(=O)[C@H](C)NC(=O)[C@H](CC(C)C)NC(=O)[C@@H](NC(=O)[C@H](CCCCN)NC(=O)[C@H](CC(=O)O)NC(=O)[C@H](CCCCN)NC(=O)[C@H](Cc1ccccc1)NC(=O)[C@@H](NC(=O)[C@@H](N)CC(N)=O)C(C)C)[C@@H](C)O)C(=O)N[C@@H](CO)C(=O)N[C@@H](Cc1ccccc1)C(=O)N[C@@H](CC(N)=O)C(=O)N[C@@H](Cc1ccccc1)C(=O)N[C@@H](CO)C(=O)N[C@@H](CC(=O)O)C(=O)N[C@@H](CCCCN)C(=O)O` [PepB1] (H-NVFKDKTLANKLSFNFSDK-OH) as the compound, how does the “protection from cytotoxicity of TcdB1 over a range of toxin concentrations” value (TcdB1) read?
Answer: The value was “did not inhibit the cytotoxicity”.

Question: What about the “protection from cytotoxicity of TcdB2 over a range of toxin concentrations” value (TcdB2) of the same compound?
Answer: The value was “did not inhibit the cytotoxicity”.

Question: With `CC[C@H](C)[C@H](NC(=O)[C@H](CCCCN)NC(=O)[C@H](CC(=O)O)NC(=O)[C@H](CO)NC(=O)[C@@H](NC(=O)[C@@H](NC(=O)[C@H](CC(N)=O)NC(=O)CNC(=O)[C@H](CCCCN)NC(=O)[C@H](Cc1ccccc1)NC(=O)[C@@H](NC(=O)[C@@H](N)CC(N)=O)C(C)C)[C@@H](C)O)[C@@H](C)CC)C(=O)N[C@@H](CO)C(=O)N[C@@H](Cc1ccccc1)C(=O)N[C@@H](CC(N)=O)C(=O)N[C@@H](Cc1ccccc1)C(=O)N[C@@H](CO)C(=O)N[C@@H](CC(=O)O)C(=O)N[C@@H](CCCCN)C(=O)O` [PepB2] as the compound, how does the “impact on TcdB cytotoxicity, PepB2 alone at 25 μM” value (TcdB [1]) read?
Answer: The value was “minimal impact”.

Question: And the “inhibition of TcdB cytotoxicity, PepB2 combined with methyl cholate” value (TcdB [1])?
Answer: Its value is “strong inhibition”.

Question: And the “increase of the 50% toxic concentration (TC50) of TcdB2” value (TcdB2)?
Answer: The value was 200 fold.

Question: And the “protection from cytotoxicity of TcdB2 over a range of toxin concentrations” value (TcdB2)?
Answer: The value was “protects CHO-K1 cells”.

Question: Which “effect of known CPPs” value (TcdB [1]) does the source give for `N=C(N)NCCC[C@H](NC(=O)CN)C(=O)N[C@@H](CCCCN)C(=O)N[C@@H](CCCCN)C(=O)N[C@@H](CCCNC(=N)N)C(=O)N[C@@H](CCCNC(=N)N)C(=O)N[C@@H](CCC(N)=O)C(=O)N[C@@H](CCCNC(=N)N)C(=O)N[C@@H](CCCNC(=N)N)C(=O)N[C@@H](CCCNC(=N)N)C(=O)N1CCC[C@H]1C(=O)N1CCC[C@H]1C(=O)N[C@@H](CCC(N)=O)C(=O)O` [TAT, reference compound] here?
Answer: Its value is “did not appear to alter TcdB cytotoxicity”.

Question: For `CC[C@H](C)[C@H](NC(=O)[C@H](CCCCN)NC(=O)[C@H](CCCCN)NC(=O)[C@H](C)NC(=O)[C@H](CC(C)C)NC(=O)[C@H](C)NC(=O)[C@H](C)NC(=O)[C@H](CC(C)C)NC(=O)[C@H](C)NC(=O)[C@H](CCCCN)NC(=O)[C@H](CC(C)C)NC(=O)[C@H](CC(N)=O)NC(=O)[C@@H](NC(=O)[C@H](CCCCN)NC(=O)CNC(=O)[C@H](CC(C)C)NC(=O)[C@H](CC(C)C)NC(=O)[C@H](Cc1ccc(O)cc1)NC(=O)CNC(=O)[C@H](C)N)[C@@H](C)CC)C(=O)N[C@@H](CC(C)C)C(=O)O` [transportan 10, reference compound], which “effect of known CPPs” value (TcdB [1]) is on record?
Answer: Its value is “did not appear to alter TcdB cytotoxicity”.

Question: For DKFSNSNKDKISFGNVTFI [Scramble 9], which “Anti-TcdB activity of scrambled PepB2 peptides” value (“Anti-TcdB activity” for short) (TcdB [1]) is on record?
Answer: The value was “found to have inhibitory activity”.

Question: Which “Anti-TcdB activity” value (TcdB [1]) does the source give for FKDNNSIIFDVKGTNFSSK [Scramble 8] here?
Answer: Its value is “found to have inhibitory activity”.

Question: Which results are given for KPPIKNLITGFTTIGDDKYYF [Peptide 9]?
Answer: inhibitory activity against TcdB1 (percent of viable cells) (TcdB1): weaker inhibitory activity; inhibitory activity against TcdB2 (percent of viable cells) (TcdB2): weaker inhibitory activity

Question: With NVFKGKTISDKISFNFSDK [PepB2-N6K] as the compound, how does the “cell penetrating activities of mutant peptides” value (shortened to “cell penetrating activities”) (CHO-K1 cells) read?
Answer: Its value is “cell penetrating activities were reduced”.

Question: With NVFKGNTLANKLSFNFSDK [PepB1-DK5-6GN] as the compound, how does the “cell penetrating activities” value (CHO-K1 cells) read?
Answer: Its value is “cell penetrating activities were gained”.

Question: For NVFKSNTISDKISFNFSDK [PepB2-G5S], which “cell penetrating activities” value (CHO-K1 cells) is on record?
Answer: Its value is “Cell penetrating activities also remained”.

Question: And the “dextran delivery compared with PepB2” value (CHO-K1 cells)?
Answer: Its value is “this is not the case for dextran delivery”.

Question: What about the “transport of dsRNA into cells compared with PepB2” value (CHO-K1 cells) of the same compound?
Answer: The value was “more efficiently transports dsRNA into cells than PepB2”.

Question: For SFNKMSIDFKDIKKLSLGYIMS [TcdA 1774-1795], which “TcdB inhibitory activity?” value (TcdB [1]) is on record?
Answer: The value was “YES”.

Question: What about the “dose dependence of inhibition of TcdB” value (TcdB [1]) of the same compound?
Answer: The value was “Dose-dependent inhibition”.

Question: And the “inhibitory activity against TcdB toxin” value (TcdB [1])?
Answer: The value was “found to have inhibitory activity against TcdB toxin”.

Question: Which “Anti-TcdB activity” value (TcdB [1]) does the source give for SNKNFSGIVFTNFDIDKSK [Scramble 12] here?
Answer: Its value is “found to have inhibitory activity”.

Question: Which “effect on the thermal stability of TcdB” value (TcdB [2]) does the source give for methyl cholate [reference compound] here?
Answer: Its value is “increase the thermal stability of TcdB”.

Question: What about the “impact on TcdB cytotoxicity, methyl cholate alone” value (TcdB [1]) of the same compound?
Answer: Its value is “minimal impact”.
